Reference: patent US8044073B2, “Aminobenzimidazoles and benzimidazoles as inhibitors of respiratory syncytial virus replication” (Tibotec Pharmaceuticals, priority 2003, dated 2011)
Read-outs that look alike come from different tables or passages of the source.

System: Respiratory Syncytial Virus
Test: In vitro screening for activity against RSV (tetrazolium-based colorimetric assay, protection against viral cytopathology)
Type: cell-based
Conditions: for EC50: human respiratory syncytial virus, 168 h, read-out: Activity (converted)
Text: The percent protection against cytopathology caused by viruses (antiviral activity or EC50) achieved by tested compounds and their cytotoxicity (CC50) are both calculated from dose-response curves. The selectivity of the antiviral effect is represented by the selectivity index (SI), calculated by dividing the CC50 (cytotoxic dose for 50% of the cells) by the EC50 (antiviral activity for 50% of the cells). The tables in the above experimental part list the category to which each of the prepared compounds belong: Compounds belonging to activity category “A” have a pEC50 (−log of EC50 when expressed in molar units) equal to or more than 7. Compounds belonging to activity category “B” have a pEC50 value between 6 and 7.
Automated tetrazolium-based colorimetric assays were used for determination of EC50 and CC50 of test compounds. Flat-bottom, 96-well plastic microtiter trays were filled with 180 μl of Eagle's Basal Medium, supplemented with 5% FCS (0% for FLU) and 20 mM Hepes buffer. Subsequently, stock solutions (7.8× final test concentration) of compounds were added in 45 μl volumes to a series of triplicate wells so as to allow simultaneous evaluation of their effects on virus- and mock-infected cells. Five five-fold dilutions were made directly in the microtiter trays using a robot system. Untreated virus controls, and HeLa cell controls were included in each test. Approximately 100 TCID50 of Respiratory Syncytial Virus was added to two of the three rows in a volume of 50 μl. The same volume of medium was added to the third row to measure the cytotoxicity of the compounds at the same concentrations as those used to measure the antiviral activity. After two hours of incubation, a suspension (4×10^5 cells/ml) of HeLa cells was added to all wells in a volume of 50 μl. The cultures were incubated at 37° C. in a 5% CO2 atmosphere. Seven days after infection the cytotoxicity and the antiviral activity was examined spectrophotometrically. To each well of the microtiter tray, 25 μl of a solution of MTT (3-(4,5-dimethylthiazol-2-yl)-2,5-diphenyltetrazolium bromide) was added. The trays were further incubated at 37° C. for 2 hours, after which the medium was removed from each cup. Solubilization of the formazan crystals was achieved by adding 100 μl 2-propanol. Complete dissolution of the formazan crystals were obtained after the trays have been placed on a plate shaker for 10 min. Finally, the absorbances were read in an eight-channel computer-controlled photometer (Multiskan MCC, Flow Laboratories) at two wavelengths (540 and 690 nm). The absorbance measured at 690 nm was automatically subtracted from the absorbance at 540 nm, so as to eliminate the effects of non-specific absorption.
The percent protection against cytopathology caused by viruses (antiviral activity or EC50) achieved by tested compounds and their cytotoxicity (CC50) were both calculated from dose-response curves. The selectivity of the antiviral effect is represented by the selectivity index (SI), calculated by dividing the CC50 (cytotoxic dose for 50% of the cells) by the EC50 (antiviral activity for 50% of the cells).

[1] = Table 6, numeric activity values, pEC50 (−log of EC50 in molar units)
[2] = Table 3, RSV in HeLa cells, MTT, seven days after infection, pEC50 = -log of EC50 in molar units
[3] = Table 1, RSV in HeLa cells, MTT, seven days after infection, pEC50 = -log of EC50 in molar units
[4] = Table 2, RSV in HeLa cells, MTT, seven days after infection, pEC50 = -log of EC50 in molar units
[5] = Table 5b, RSV in HeLa cells, MTT, seven days after infection, pEC50 = -log of EC50 in molar units
[6] = Table 4, RSV in HeLa cells, MTT, seven days after infection, pEC50 = -log of EC50 in molar units
[7] = Table 5a, RSV in HeLa cells, MTT, seven days after infection, pEC50 = -log of EC50 in molar units

Cc1ccc(O)c(Cn2cnc3cc(CNCc4ccncc4)ccc32)n1 [Compound 270]
Activity [1]: <4.0

Cc1ccc(O)c(Cn2cnc3cc(C(O)c4ccccc4)ccc32)n1.O=C(O)C(=O)O (stereo not drawn) [Compound 274]
Activity [1]: <4.0

Cc1ccc(O)c(Cn2c(N)nc3ccc(CN(CCO)c4cnc5ccccc5c4)cc32)n1 [Compound 175]
Activity [2]: 8.5

Cc1ccc(O)c(Cn2c(N)nc3ccc(CNc4cc(C(C)(C)C)cc(C(C)(C)C)c4)cc32)n1 [Compound 76]
Activity [3]: 6.8

Cc1ccc(O)c(Cn2cnc3cc(CNCCCc4ccccc4)ccc32)n1 [Compound 272]
Activity [1]: <4.0

CC(=O)c1cccc(NCc2ccc3c(c2)nc(N)n3Cc2nc(C)ccc2O)c1 [Compound 118]
Activity [4]: 6.4

Cc1ccc(O)c(Cn2c(N)nc3ccc(CNc4ccc5c(c4)CCC5)cc32)n1 [Compound 36]
Activity [3]: 7.7

C#Cc1cccc(NCc2ccc3c(c2)nc(N)n3Cc2nc(C)ccc2O)c1 [Compound 127]
Activity [4]: <4.0

Cc1ccc(O)c(Cn2c(N)nc3ccc(CN(CCC(N)=O)c4cc(Cl)cc(Cl)c4)cc32)n1 [Compound 167]
Activity [2]: 9.4

Cc1ccc(CCCO)c(NCc2ccc3nc(N)n(Cc4ccc(F)cc4)c3c2)c1 [Compound 219]
Activity [5]: 5.3

Cc1ccc(O)c(Cn2c(N)nc3ccc(CNc4ccc(C#N)cc4)cc32)n1 [Compound 13]
Activity [3]: 8.4

Cc1ccc(O)c(Cn2c(N)nc3ccc(CNc4cccc(F)c4)cc32)n1 [Compound 22]
Activity [3]: 7.9

Cc1ccc(O)c(Cn2c(N)nc3ccc(CNc4ccc(C(N)=O)cc4)cc32)n1 [Compound 85]
Activity [3]: 8.4

Cc1cccc(N(CCO)Cc2ccc3ncn(Cc4nc(C)ccc4O)c3c2)c1 [Compound 193]
Activity [6]: 6.3

Cc1ccc(O)c(Cn2c(N)nc3cc(CNc4cc(Cl)cc(Cl)c4)ccc32)n1 [Compound 121]
Activity [4]: 5.8

CC(=O)c1ccccc1NCc1ccc2nc(N)n(Cc3nc(C)ccc3O)c2c1 [Compound 69]
Activity [3]: 7.2

CC(=O)Nc1cccc(NCc2ccc3nc(N)n(Cc4nc(C)ccc4O)c3c2)c1 [Compound 35]
Activity [3]: 7.7

COc1ccc(C)nc1Cn1c(N)nc2ccc(CNc3cc(C)ccc3CCCO)cc21 [Compound 209]
Activity [5]: 7.8

Cc1ccc(O)c(Cn2cnc3cc(NC(=O)C4CCN(CCN)CC4)ccc32)n1 [Compound 245]
Activity [1]: 4.2

CCc1cccc(NCc2ccc3ncn(Cc4nc(C)ccc4O)c3c2)c1 [Compound 187]
Activity [6]: 5.7

Cc1ccc(CCCO)c(NCc2ccc3ncn(Cc4nc(C)ccc4O)c3c2)c1 [Compound 191]
Activity [6]: 7.9

Cc1ccc(O)c(Cn2c(N)nc3ccc(CNc4cc(C#N)ccc4CCO)cc32)n1 [Compound 89]
Activity [3]: 10.6

Cc1ccc(O)c(Cn2cnc3ccc(CNc4cccc(C)c4C)cc32)n1 [Compound 284]
Activity [1]: <4.0

Cc1ccc(O)c(Cn2c(N)nc3ccc(CNc4cccc(S(=O)(=O)CCO)c4)cc32)n1 [Compound 33]
Activity [3]: 7.8

CCOC(=O)c1cccc(NCc2ccc3nc(N)n(Cc4nc(C)ccc4O)c3c2)c1 [Compound 59]
Activity [3]: 7.3

Cc1ccc(O)c(Cn2cnc3cc(NC(=O)Cc4ccccn4)ccc32)n1 [Compound 281]
Activity [1]: <4.0

Cc1ccc(O)c(Cn2cnc3cc(CNc4cccc(C)c4C)ccc32)n1 [Compound 295]
Activity [1]: <4.0

Cc1ccc(O)c(Cn2cnc3cc(CNc4cccc(C#N)c4)ccc32)n1 [Compound 292]
Activity [1]: <4.0

CNc1nc2cc(CO)ccc2n1Cc1nc(C)ccc1O [Compound 202]
Activity [7]: <4.0

C#Cc1ccc(CCO)c(NCc2ccc3nc(N)n(Cc4nc(C)ccc4O)c3c2)c1 [Compound 92]
Activity [3]: 10.4

Cc1ccc(O)c(Cn2c(N)nc3ccc(CNc4cccc(OCc5ccccc5)c4)cc32)n1 [Compound 77]
Activity [3]: 6.8

Cc1ccc(CCCO)c(NCc2ccc3nc(N)n(Cc4nc(C)c(C)nc4C)c3c2)c1 [Compound 218]
Activity [5]: 6.1

Cc1ccc(O)c(Cn2cnc3ccc(CNc4cccc(Cl)c4)cc32)n1 [Compound 186, 2-{6-[(3-chloro-phenylamino)-methyl]-benzoimidazol-1-ylmethyl}-6-methyl-pyridin-3-ol]
EC50 [6]: 1.58 µM

Cc1ccc(O)c(Cn2c(N)nc3ccc(CNc4cc(F)cc(F)c4)cc32)n1 [Compound 49]
Activity [3]: 7.5

Cc1ccc(O)c(Cn2c(N)nc3ccc(CNc4cccc(C(=N)N)c4)cc32)n1 [Compound 41]
Activity [3]: 7.7

COc1ccc(NCc2ccc3nc(N)n(Cc4nc(C)ccc4O)c3c2)cc1OC [Compound 61]
Activity [3]: 7.3

Cc1ccc(O)c(Cn2cnc3cc(CNc4cccc(Cl)c4)ccc32)n1 [Compound 288]
Activity [1]: <4.0

Cc1cccc(N(CCCS(N)(=O)=O)Cc2ccc3nc(N)n(Cc4nc(C)ccc4O)c3c2)c1 [Compound 168]
Activity [2]: 9.3

Cc1ccc(O)c(Cn2cnc3cc(NC(=O)CCc4ccccc4)ccc32)n1 [Compound 280]
Activity [1]: <4.0

Cc1ccc(O)c(Cn2cnc3cc(CNc4cccc(F)c4)ccc32)n1 [Compound 293]
Activity [1]: <4.0

CNc1nc2ccc(CO)cc2n1Cc1nc(C)ccc1O [Compound 200]
Activity [7]: 4.9

Cc1ccc(O)c(Cn2cnc3cc(CNCCN(C)C)ccc32)n1 [Compound 255]
Activity [1]: <4.0

Cc1ccc(O)c(Cn2cnc3ccc(NC(=O)CCc4ccccc4)cc32)n1 [Compound 277]
Activity [1]: <4.0

Cc1ccc(O)c(Cn2c(N)nc3ccc(CNc4cccc(Oc5ccccc5)c4)cc32)n1 [Compound 71]
Activity [3]: 7.1

Cc1ccc(O)c(Cn2cnc3ccc(CNc4ccccc4)cc32)n1 [Compound 285]
Activity [1]: <4.0

CC(=O)c1cccc(NCc2ccc3ncn(Cc4nc(C)ccc4O)c3c2)c1 [Compound 282]
Activity [1]: <4.0

COc1ccc(NCc2ccc3nc(N)n(Cc4nc(C)ccc4O)c3c2)cc1F [Compound 28]
Activity [3]: 7.8

Cc1ccc(O)c(Cn2c(N)nc3ccc(CNc4cc(Cl)cc(Cl)c4)cc32)n1 [Compound 2]
Activity [3]: 8.6

Cc1ccc(O)c(Cn2cnc3cc(CNc4cccc(Br)c4)ccc32)n1 [Compound 287]
Activity [1]: <4.0

CCc1cccc(NCc2ccc3c(c2)ncn3Cc2nc(C)ccc2O)c1 [Compound 294]
Activity [1]: <4.0

Cc1ccc(CCCO)c(NCc2ccc3nc(N)n(Cc4cccc(Br)n4)c3c2)c1 [Compound 228]
Activity [5]: <4

Cc1ccc(O)c(Cn2cnc3cc(C=CC#N)ccc32)n1 [Compound 252]
Activity [1]: <4.0

Cc1ccc(O)c(Cn2c(N)nc3ccc(CNc4ccccc4C(C)C)cc32)n1 [Compound 32]
Activity [3]: 7.8

Cc1ccc(O)c(Cn2cnc3cc(CNCc4ccco4)ccc32)n1 [Compound 271]
Activity [1]: <4.0

Cc1ccc(O)c(Cn2c(N)nc3cc(CNc4ccccc4)ccc32)n1 [Compound 116]
Activity [4]: 7.0

Cc1ccc(O)c(Cn2c(N)nc3ccc(CNc4cccc(CO)c4)cc32)n1 [Compound 26]
Activity [3]: 7.9

Cc1ccc(O)c(Cn2c(N)nc3ccc(CNc4cccc(CC(=O)O)c4)cc32)n1 [Compound 46]
Activity [3]: 7.6

Cc1ccc(O)c(Cn2c(N)nc3ccc(CNc4ccccc4C(N)=O)cc32)n1 [Compound 39]
Activity [3]: 7.7

Nc1nc2ccc(CO)cc2n1Cc1cccc2cccnc12 [Compound 222, (2-amino-3-quinolin-8-ylmethyl-3H-benzoimidazol-5-yl)-methanol]
EC50 [5]: 39.8 µM

Cc1ccc(O)c(Cn2c(N)nc3ccc(CNc4cccc(NS(C)(=O)=O)c4)cc32)n1 [Compound 27]
Activity [3]: 7.9
